≈ marks a conversion by molar mass, not a printed value.

This test concerns Mycobacterium tuberculosis. The test is described as follows: Antimycobacterial activity against Mycobacterium tuberculosis H37Rv. In kind it is functional.
`Fc1ccc2[nH]c3c(c2c1)SC(c1ccccc1)C3` (stereo unspecified): 6.25 µg/mL (≈ 23.2 µM) was the least that counted as inhibitory (MIC).

In turn, `Clc1ccc2[nH]c3c(c2c1)SC(c1ccccc1)C3` (stereo unspecified) gave an MIC of 12.5 µg/mL (≈ 43.7 µM).

`Fc1cccc(C2Cc3[nH]c4ccccc4c3S2)c1` (stereo unspecified) yielded a minimal inhibitory concentration (MIC) of 3.13 µg/mL (≈ 11.6 µM).

As to `Clc1ccc(C2Cc3[nH]c4ccc(Cl)cc4c3S2)cc1` (stereo unspecified), the MIC is 12.5 µg/mL (≈ 39 µM).

Compound `Fc1ccc2[nH]c3c(c2c1)SC(c1ccc(Cl)cc1)C3` (stereo unspecified) yielded an MIC of 1.56 µg/mL (≈ 5.14 µM). Against the preceding compound, the MIC is about 8-fold lower.

In the case of `Cc1ccc(C2Cc3[nH]c4ccc(F)cc4c3S2)cc1` (stereo unspecified), the MIC was 3.13 µg/mL (≈ 11 µM).

Regarding `c1ccc(C2Cc3[nH]c4ccccc4c3S2)cc1` (stereo unspecified), the MIC worked out at 25 µg/mL (≈ 99.5 µM).

Regarding `Clc1ccc2[nH]c3c(c2c1)SC(c1ccccc1Cl)C3` (stereo unspecified), it took 3.13 µg/mL (≈ 9.77 µM) to inhibit growth (MIC).

`CC(C)c1ccc(C2Cc3[nH]c4ccc(Cl)cc4c3S2)cc1` (stereo unspecified) showed an MIC of 0.78 µg/mL (≈ 2.38 µM).

As to `Fc1ccc2[nH]c3c(c2c1)SC(c1ccccc1Cl)C3` (stereo unspecified), the MIC came out at 1.76 µg/mL (≈ 5.79 µM). Compared with the last compound, the MIC is about 2.3-fold higher.

Compound `CC(C)c1ccc(C2Cc3[nH]c4ccc(F)cc4c3S2)cc1` (stereo unspecified) gave an MIC of 0.78 µg/mL (≈ 2.5 µM).

In turn, `Clc1ccc(C2Cc3[nH]c4ccccc4c3S2)c(Cl)c1` (stereo unspecified) returned an MIC of 1.76 µg/mL (≈ 5.5 µM).

For `Fc1ccc(C2Cc3[nH]c4ccc(Cl)cc4c3S2)cc1` (stereo unspecified), the MIC amounted to 3.13 µg/mL (≈ 10.3 µM).

`Cc1ccc(C2Cc3[nH]c4ccccc4c3S2)cc1` (stereo unspecified) returned an MIC of 6.25 µg/mL (≈ 23.6 µM).

The compound `Clc1ccccc1C1Cc2[nH]c3ccccc3c2S1` (stereo unspecified) had a minimal inhibitory concentration (MIC) of 6.25 µg/mL (≈ 21.9 µM).

`Brc1ccccc1C1Cc2[nH]c3ccccc3c2S1` (stereo unspecified): the MIC came to 3.13 µg/mL (≈ 9.48 µM).

`Clc1ccc(C2Cc3[nH]c4ccc(Cl)cc4c3S2)c(Cl)c1` (stereo unspecified) gave an MIC of 0.78 µg/mL (≈ 2.2 µM).

Turning to `Cc1ccc(C2Cc3[nH]c4ccc(Cl)cc4c3S2)cc1` (stereo unspecified), the lowest concentration to inhibit growth (MIC) was 6.25 µg/mL (≈ 20.8 µM).

Consider `Clc1ccc(C2Cc3[nH]c4ccccc4c3S2)cc1` (stereo unspecified), for which the MIC was determined as 12.5 µg/mL (≈ 43.7 µM).

Consider `O=[N+]([O-])c1cccc(C2Cc3[nH]c4ccccc4c3S2)c1` (stereo unspecified), for which the MIC is 1.76 µg/mL (≈ 5.94 µM). Against the preceding compound, the MIC is about 7.1-fold lower.

Turning to `CC(C)c1ccc(C2Cc3[nH]c4ccccc4c3S2)cc1` (stereo unspecified), 0.78 µg/mL (≈ 2.66 µM) was the least that counted as inhibitory (MIC).

For the compound `Fc1ccc2[nH]c3c(c2c1)SC(c1ccc(Cl)cc1Cl)C3` (stereo unspecified), the MIC stood at 0.4 µg/mL (≈ 1.18 µM). This MIC lies about 1.9-fold lower than the previous one.

For `CC[C@@H](CO)NCCN[C@@H](CC)CO` [ETHAMBUTOL], the MIC came to 1.56 µg/mL (≈ 7.64 µM).

The compound `NNC(=O)c1ccncc1` [ISONIAZID] had an MIC of 0.05 µg/mL (≈ 0.365 µM). Compared with the last compound, the MIC is about 31-fold lower.

With `NC(=O)c1cnccn1` [PYRAZINAMIDE], inhibition of growth (MIC) required 6.25 µg/mL (≈ 50.8 µM).

The compound `CO[C@H]1/C=C/O[C@@]2(C)Oc3c(C)c(O)c4c(O)c(c(/C=N/N5CCN(C)CC5)c(O)c4c3C2=O)NC(=O)/C(C)=C\C=C\[C@H](C)[C@H](O)[C@@H](C)[C@@H](O)[C@@H](C)[C@H](OC(C)=O)[C@@H]1C` [RIFAMPIN] showed an MIC of 0.1 µg/mL (≈ 0.122 µM).

The MIC is the smallest concentration in the dilution series that meets the test's criterion for growth inhibition. A lower MIC goes with a more susceptible organism.

Values taken from ChEMBL document CHEMBL1151911, “A microwave-assisted facile regioselective Fischer indole synthesis and antitubercular evaluation of novel 2-aryl-3,4-dihydro-2H-thieno[3,2-b]indoles” (2009).
